Literature values as cited in US11014971B2, “Peptibodies, compositions thereof, and methods of treating atrial fibrillation” (University of South Florida, priority 2016, dated 2021).

How the values were obtained:
[1] = system: atrial action potential in a normal heart
[2] = system: paroxysmal AF and atrial flutter in patients
IKACh = biological target: T1, IKACh (Homo sapiens, UniProt P48544+P48549)
T1 sequence (P48549 1-501): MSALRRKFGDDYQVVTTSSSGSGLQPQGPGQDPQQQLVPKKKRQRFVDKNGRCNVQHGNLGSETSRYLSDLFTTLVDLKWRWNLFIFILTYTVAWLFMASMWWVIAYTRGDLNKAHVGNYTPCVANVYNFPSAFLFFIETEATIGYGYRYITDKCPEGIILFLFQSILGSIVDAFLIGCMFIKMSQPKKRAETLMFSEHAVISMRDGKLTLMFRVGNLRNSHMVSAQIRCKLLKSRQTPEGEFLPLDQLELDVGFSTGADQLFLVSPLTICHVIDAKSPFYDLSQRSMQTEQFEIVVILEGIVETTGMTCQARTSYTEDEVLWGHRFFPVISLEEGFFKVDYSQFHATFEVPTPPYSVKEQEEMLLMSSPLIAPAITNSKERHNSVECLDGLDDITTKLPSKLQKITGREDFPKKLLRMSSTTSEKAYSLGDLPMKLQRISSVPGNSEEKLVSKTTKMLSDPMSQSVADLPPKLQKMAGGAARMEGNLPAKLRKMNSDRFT
T1 sequence (P48544 1-419): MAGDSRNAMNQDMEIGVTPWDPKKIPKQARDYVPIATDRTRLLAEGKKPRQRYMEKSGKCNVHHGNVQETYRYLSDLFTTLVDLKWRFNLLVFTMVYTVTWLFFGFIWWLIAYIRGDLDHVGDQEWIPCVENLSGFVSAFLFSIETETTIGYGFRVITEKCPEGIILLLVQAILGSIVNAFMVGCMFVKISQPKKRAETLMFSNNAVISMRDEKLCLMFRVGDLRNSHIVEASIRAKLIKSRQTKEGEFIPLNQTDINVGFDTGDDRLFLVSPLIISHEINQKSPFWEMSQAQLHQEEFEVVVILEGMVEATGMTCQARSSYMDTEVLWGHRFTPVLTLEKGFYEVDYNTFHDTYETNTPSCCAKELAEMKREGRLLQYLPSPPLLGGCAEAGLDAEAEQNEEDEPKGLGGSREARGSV

Compound	Effect on the action potential duration in normal atria [1]	Reversion of atrial flutter in patients ([2]; atrial flutter)	Concentrations at which IKACh is selectively inhibited (IKACh)	Reversion of paroxysmal AF in patients ([2]; paroxysmal AF)
Tertiapin	minimal effects	–	–	–
Cc1cc(C(=O)N(C)[C@H](CN2CC(O)C2)C(C)C)ccc1F [AZD2927]	–	failed to revert	submicromolar	–
Cc1cc(CO)nc2cc3c(cc12)OC(C)(C)[C@H](O)[C@H]3NCCc1ccccc1 [NTC-801]	–	–	submicromolar	failed to revert
